From ChEMBL document CHEMBL3885881, “DrugMatrix”

Organism: Rattus norvegicus
Assay: DrugMatrix - Regimen: Daily Repeat
Type: toxicity, organism-based, Sprague-Dawley
Parameters: regimen Daily Repeat, gender Male, age 6-8 weeks
Conditions: in vivo, po, route oral GAVAGE, vehicle 100 % WATER; for ABSOLUTE BASOPHIL / ABSOLUTE EOSINOPHIL / ABSOLUTE LYMPHOCYTE / ABSOLUTE MONOCYTE / ABSOLUTE SEGMENTED NEUTROPHIL / BASOPHIL / EOSINOPHIL / ERYTHROCYTE COUNT / HEMATOCRIT / HEMOGLOBIN / LEUKOCYTE COUNT / LYMPHOCYTE / MEAN CORPUSCULAR HEMOGLOBIN / MEAN CORPUSCULAR HEMOGLOBIN CONCENTRATION / MEAN CORPUSCULAR VOLUME / MONOCYTE / NEUTROPHIL / NUCLEATED RED BLOOD CELLS / PLATELET COUNT: tissue Blood; for ALANINE AMINOTRANSFERASE / ALBUMIN / ALKALINE PHOSPHATASE / ASPARTATE AMINOTRANSFERASE / BLOOD UREA NITROGEN / CARBON DIOXIDE / CHLORIDE / CHOLESTEROL / CREATINE PHOSPHOKINASE / CREATININE / GLUCOSE / LACTATE DEHYDROGENASE / LIPASE / PHOSPHORUS / POTASSIUM / SODIUM / TOTAL BILIRUBIN / TOTAL PROTEIN / URIC ACID: tissue Plasma
[1] = 120 mg/kg, 120 h, dose level Low, time 5 day
[2] = 1200 mg/kg, 72 h, dose level High, time 3 day
[3] = 1200 mg/kg, 120 h, dose level High, time 5 day

Question: Which “ABSOLUTE BASOPHIL” value [1] does the source give for `Cc1onc(-c2ccccc2Cl)c1C(=O)N[C@@H]1C(=O)N2[C@@H]1SC(C)(C)[C@@H]2C(=O)O` [CLOXACILLIN] here?
Answer: 0 CELLS/uL

Question: What about the “ABSOLUTE EOSINOPHIL” value [1] of the same molecule?
Answer: 0 CELLS/uL

Question: And the “ABSOLUTE LYMPHOCYTE” value [1]?
Answer: 14591.67 CELLS/uL

Question: And the “ABSOLUTE MONOCYTE” value [1]?
Answer: 338 CELLS/uL

Question: And the “ABSOLUTE SEGMENTED NEUTROPHIL” value [1]?
Answer: 1970.33 CELLS/uL

Question: And the BASOPHIL [1]?
Answer: 0%

Question: What about the EOSINOPHIL [1] of the same molecule?
Answer: 0%

Question: What about the “ERYTHROCYTE COUNT” value [1] of the same molecule?
Answer: 5.42 x10E6/uL

Question: What about the HEMATOCRIT [1] of the same molecule?
Answer: 34.13%

Question: And the HEMOGLOBIN [1]?
Answer: 13.57 G/DL

Question: What about the “LEUKOCYTE COUNT” value [1] of the same molecule?
Answer: 16.9 x10E3/uL

Question: And the LYMPHOCYTE [1]?
Answer: 86.33%

Question: And the “MEAN CORPUSCULAR HEMOGLOBIN” value [1]?
Answer: 25.07 pg

Question: What about the “MEAN CORPUSCULAR HEMOGLOBIN CONCENTRATION” value [1] of the same molecule?
Answer: 39.73 G/DL

Question: What about the “MEAN CORPUSCULAR VOLUME” value [1] of the same molecule?
Answer: 62.97 fL

Question: What about the MONOCYTE [1] of the same molecule?
Answer: 2%

Question: What about the NEUTROPHIL [1] of the same molecule?
Answer: 11.67%

Question: What about the “NUCLEATED RED BLOOD CELLS” value [1] of the same molecule?
Answer: 0 /100WBC

Question: And the “PLATELET COUNT” value [1]?
Answer: 1237.33 x10E3/uL

Question: What about the “ALANINE AMINOTRANSFERASE” value [1] of the same molecule?
Answer: 51.33 u/L

Question: What about the ALBUMIN [1] of the same molecule?
Answer: 4.13 G/DL

Question: And the “ALKALINE PHOSPHATASE” value [1]?
Answer: 349.67 u/L

Question: What about the “ASPARTATE AMINOTRANSFERASE” value [1] of the same molecule?
Answer: 77.33 u/L

Question: And the “BLOOD UREA NITROGEN” value [1]?
Answer: 15.67 mg/dL

Question: And the “CARBON DIOXIDE” value [1]?
Answer: 27 mmol/L

Question: And the CHLORIDE [1]?
Answer: 101.33 MEQ/L

Question: What about the CHOLESTEROL [1] of the same molecule?
Answer: 69.67 mg/dL

Question: And the “CREATINE PHOSPHOKINASE” value [1]?
Answer: 381.33 u/L

Question: What about the CREATININE [1] of the same molecule?
Answer: 0.14 mg/dL

Question: And the GLUCOSE [1]?
Answer: 149.67 mg/dL

Question: What about the “LACTATE DEHYDROGENASE” value [1] of the same molecule?
Answer: 190 u/L

Question: What about the LIPASE [1] of the same molecule?
Answer: 8.33 u/L

Question: And the PHOSPHORUS [1]?
Answer: 11.87 mg/dL

Question: And the POTASSIUM [1]?
Answer: 6.69 MEQ/L

Question: And the SODIUM [1]?
Answer: 143.53 MEQ/L

Question: And the “TOTAL BILIRUBIN” value [1]?
Answer: 0.13 mg/dL

Question: What about the “TOTAL PROTEIN” value [1] of the same molecule?
Answer: 5.77 G/DL

Question: And the “URIC ACID” value [1]?
Answer: 1.5 mg/dL

Question: And the “ABSOLUTE BASOPHIL” value [2]?
Answer: 0 CELLS/uL

Question: And the “ABSOLUTE EOSINOPHIL” value [2]?
Answer: 0 CELLS/uL

Question: And the “ABSOLUTE LYMPHOCYTE” value [2]?
Answer: 9313 CELLS/uL

Question: What about the “ABSOLUTE MONOCYTE” value [2] of the same molecule?
Answer: 140.33 CELLS/uL

Question: What about the “ABSOLUTE SEGMENTED NEUTROPHIL” value [2] of the same molecule?
Answer: 1013.33 CELLS/uL

Question: What about the BASOPHIL [2] of the same molecule?
Answer: 0%

Question: What about the EOSINOPHIL [2] of the same molecule?
Answer: 0%

Question: What about the “ERYTHROCYTE COUNT” value [2] of the same molecule?
Answer: 4.48 x10E6/uL

Question: And the HEMATOCRIT [2]?
Answer: 28.27%

Question: And the HEMOGLOBIN [2]?
Answer: 11.27 G/DL

Question: What about the “LEUKOCYTE COUNT” value [2] of the same molecule?
Answer: 10.47 x10E3/uL

Question: And the LYMPHOCYTE [2]?
Answer: 90%

Question: What about the “MEAN CORPUSCULAR HEMOGLOBIN” value [2] of the same molecule?
Answer: 25.37 pg

Question: And the “MEAN CORPUSCULAR HEMOGLOBIN CONCENTRATION” value [2]?
Answer: 39.93 G/DL

Question: What about the “MEAN CORPUSCULAR VOLUME” value [2] of the same molecule?
Answer: 63.4 fL

Question: What about the MONOCYTE [2] of the same molecule?
Answer: 1%

Question: What about the NEUTROPHIL [2] of the same molecule?
Answer: 9%

Question: And the “NUCLEATED RED BLOOD CELLS” value [2]?
Answer: 0 /100WBC

Question: What about the “PLATELET COUNT” value [2] of the same molecule?
Answer: 825.33 x10E3/uL

Question: And the “ALANINE AMINOTRANSFERASE” value [2]?
Answer: 72 u/L

Question: What about the ALBUMIN [2] of the same molecule?
Answer: 4.03 G/DL

Question: And the “ALKALINE PHOSPHATASE” value [2]?
Answer: 414 u/L

Question: What about the “ASPARTATE AMINOTRANSFERASE” value [2] of the same molecule?
Answer: 89.67 u/L

Question: And the “BLOOD UREA NITROGEN” value [2]?
Answer: 15 mg/dL

Question: What about the “CARBON DIOXIDE” value [2] of the same molecule?
Answer: 22.33 mmol/L

Question: What about the CHLORIDE [2] of the same molecule?
Answer: 102.67 MEQ/L

Question: What about the CHOLESTEROL [2] of the same molecule?
Answer: 86.33 mg/dL

Question: And the “CREATINE PHOSPHOKINASE” value [2]?
Answer: 306 u/L

Question: What about the CREATININE [2] of the same molecule?
Answer: 0.16 mg/dL

Question: What about the GLUCOSE [2] of the same molecule?
Answer: 144.67 mg/dL

Question: And the “LACTATE DEHYDROGENASE” value [2]?
Answer: 170 u/L

Question: And the LIPASE [2]?
Answer: 10.67 u/L

Question: And the PHOSPHORUS [2]?
Answer: 12.23 mg/dL

Question: What about the POTASSIUM [2] of the same molecule?
Answer: 6.82 MEQ/L

Question: What about the SODIUM [2] of the same molecule?
Answer: 143.7 MEQ/L

Question: And the “TOTAL BILIRUBIN” value [2]?
Answer: 0.13 mg/dL

Question: What about the “TOTAL PROTEIN” value [2] of the same molecule?
Answer: 5.7 G/DL

Question: And the “URIC ACID” value [2]?
Answer: 1.7 mg/dL

Question: And the “ABSOLUTE BASOPHIL” value [3]?
Answer: 0 CELLS/uL

Question: What about the “ABSOLUTE EOSINOPHIL” value [3] of the same molecule?
Answer: 148.67 CELLS/uL

Question: And the “ABSOLUTE LYMPHOCYTE” value [3]?
Answer: 18945 CELLS/uL

Question: What about the “ABSOLUTE MONOCYTE” value [3] of the same molecule?
Answer: 0 CELLS/uL

Question: And the “ABSOLUTE SEGMENTED NEUTROPHIL” value [3]?
Answer: 1139.67 CELLS/uL

Question: What about the BASOPHIL [3] of the same molecule?
Answer: 0%

Question: What about the EOSINOPHIL [3] of the same molecule?
Answer: 0.67%

Question: What about the “ERYTHROCYTE COUNT” value [3] of the same molecule?
Answer: 5.75 x10E6/uL

Question: What about the HEMATOCRIT [3] of the same molecule?
Answer: 35.27%

Question: And the HEMOGLOBIN [3]?
Answer: 13.97 G/DL

Question: What about the “LEUKOCYTE COUNT” value [3] of the same molecule?
Answer: 20.23 x10E3/uL

Question: And the LYMPHOCYTE [3]?
Answer: 93.67%

Question: What about the “MEAN CORPUSCULAR HEMOGLOBIN” value [3] of the same molecule?
Answer: 24.3 pg

Question: What about the “MEAN CORPUSCULAR HEMOGLOBIN CONCENTRATION” value [3] of the same molecule?
Answer: 39.6 G/DL

Question: What about the “MEAN CORPUSCULAR VOLUME” value [3] of the same molecule?
Answer: 61.33 fL

Question: What about the MONOCYTE [3] of the same molecule?
Answer: 0%

Question: What about the NEUTROPHIL [3] of the same molecule?
Answer: 5.67%

Question: What about the “NUCLEATED RED BLOOD CELLS” value [3] of the same molecule?
Answer: 0 /100WBC

Question: And the “PLATELET COUNT” value [3]?
Answer: 1362 x10E3/uL

Question: And the “ALANINE AMINOTRANSFERASE” value [3]?
Answer: 67 u/L

Question: And the ALBUMIN [3]?
Answer: 4.2 G/DL

Question: And the “ALKALINE PHOSPHATASE” value [3]?
Answer: 356 u/L

Question: What about the “ASPARTATE AMINOTRANSFERASE” value [3] of the same molecule?
Answer: 78 u/L

Question: And the “BLOOD UREA NITROGEN” value [3]?
Answer: 17.67 mg/dL

Question: And the “CARBON DIOXIDE” value [3]?
Answer: 26 mmol/L

Question: And the CHLORIDE [3]?
Answer: 102.67 MEQ/L

Question: What about the CHOLESTEROL [3] of the same molecule?
Answer: 75.33 mg/dL

Question: What about the “CREATINE PHOSPHOKINASE” value [3] of the same molecule?
Answer: 220.67 u/L

Question: And the CREATININE [3]?
Answer: 0.15 mg/dL

Question: And the GLUCOSE [3]?
Answer: 159.67 mg/dL

Question: And the “LACTATE DEHYDROGENASE” value [3]?
Answer: 104 u/L

Question: What about the LIPASE [3] of the same molecule?
Answer: 9.33 u/L

Question: What about the PHOSPHORUS [3] of the same molecule?
Answer: 11.63 mg/dL

Question: What about the POTASSIUM [3] of the same molecule?
Answer: 6.63 MEQ/L

Question: And the SODIUM [3]?
Answer: 144.07 MEQ/L

Question: And the “TOTAL BILIRUBIN” value [3]?
Answer: 0.13 mg/dL

Question: What about the “TOTAL PROTEIN” value [3] of the same molecule?
Answer: 6.17 G/DL

Question: And the “URIC ACID” value [3]?
Answer: 2 mg/dL
